Reference: EPA's ToxValDB 9.5 (doi:10.2903/j.efsa.2016.4612)

Experiments:
[1] = tested on: Folsomia candida; settings: chronic/long-term; duration: 28 days; reproduction
[2] = tested on: Tagia sp.; settings: chronic/long-term; duration: 56 days
[3] = tested on: Rattus norvegicus; settings: for LD50: acute, gavage, mortality
[4] = tested on: Apis mellifera; settings: acute, duration: 48 hours, mortality
[5] = tested on: Colinus virginianus; settings: oral
[6] = tested on: Daphnia magna; settings: chronic/long-term; duration: 21 days; reproduction
[7] = tested on: Oncorhynchus mykiss; settings: acute; duration: 96 hours; mortality
[8] = tested on: Oryctolagus sp.; settings: reproduction developmental; clinical signs
[9] = tested on: Pimephales promelas; settings: chronic/long-term; duration: 35 days; reproduction
[10] = tested on: Landoltia sp.; settings: acute; duration: 7 days; other
[11] = tested on: Lepomis macrochirus; settings: acute; duration: 96 hours; mortality

For `O=C1NS(=O)(=O)c2cccc(O)c21` [4-hydroxy-1H-1,2-benzisothiazole-1,1,3(2H)-trione], the NOEC [1] was 10 mg/kg and the NOEC [2] was 5 mg/kg.
With `COC(=O)c1ccccc1S(=O)(=O)NC(=O)n1nc(OCC(C)O)n(C)c1=O` (stereo not given) [Propoxycarbazone-2-hydroxypropoxy] the LD50 ([3]; oral) was > 5000 mg/kg-day and the NOAEL ([3]; short-term, duration: 28 days, oral, diet) was > 880 mg/kg-day.
In the case of `CCCOc1nn(C(=O)[N-]S(=O)(=O)c2ccccc2C(=O)OC)c(=O)n1C.[Na+]` [Propoxycarbazone-sodium], the LD50 ([4]; dermal) is reported as > 100 µg/piece, the LD50 ([4]; oral, unspecified) is reported as > 110 µg/piece and the LD50 ([5]; acute, mortality) is reported as > 2000 mg/kg-day. It also gave an NOEL ([5]; reproduction developmental, duration: 25 weeks, diet, reproduction) of 45 mg/kg-day, an NOEC [6] of 13.8 mg/L and an NOEC [1] of 500 mg/kg. The LC50 [7] was > 77.2 µg/mL, the NOAEL [8] was 100 mg/kg-day and the NOEC [9] was 5.83 mg/L. For the same compound, the LD50 ([3]; oral) was > 5000 mg/kg-day, the NOAEL ([3]; chronic, duration: 2 years, clinical chemistry) was 43 mg/kg-day and the NOEC [2] was 1.25 mg/kg.
`CCCOc1nn(C(N)=O)c(=O)n1C` was tested, and the NOEC [1] was 10 mg/kg and the NOEC [2] was 316 mg/kg.
`CCCOc1nn(C(=O)NS(=O)(=O)c2ccccc2C(=O)O)c(=O)n1C` was tested, and the NOEC [10] was 14.2 mg/L and the LC50 [11] was > 87.7 µg/mL.
